According to ChEMBL document CHEMBL5126675, “Recent Discovery of PARP7 Inhibitors as Anticancer Agents” (ACS Med Chem Lett, 2022):

Key:
[1] = Oral bioavailability in mouse at 100 mg/kg administered as single dose; type: ADME, organism-based; details: in vivo
[2] = biological target: T1, Protein mono-ADP-ribosyltransferase TIPARP (Homo sapiens, UniProt Q7Z3E1); experiment: Inhibition of PARP7 (unknown origin) by HTRF assay
T1 sequence (Q7Z3E1 whole entry): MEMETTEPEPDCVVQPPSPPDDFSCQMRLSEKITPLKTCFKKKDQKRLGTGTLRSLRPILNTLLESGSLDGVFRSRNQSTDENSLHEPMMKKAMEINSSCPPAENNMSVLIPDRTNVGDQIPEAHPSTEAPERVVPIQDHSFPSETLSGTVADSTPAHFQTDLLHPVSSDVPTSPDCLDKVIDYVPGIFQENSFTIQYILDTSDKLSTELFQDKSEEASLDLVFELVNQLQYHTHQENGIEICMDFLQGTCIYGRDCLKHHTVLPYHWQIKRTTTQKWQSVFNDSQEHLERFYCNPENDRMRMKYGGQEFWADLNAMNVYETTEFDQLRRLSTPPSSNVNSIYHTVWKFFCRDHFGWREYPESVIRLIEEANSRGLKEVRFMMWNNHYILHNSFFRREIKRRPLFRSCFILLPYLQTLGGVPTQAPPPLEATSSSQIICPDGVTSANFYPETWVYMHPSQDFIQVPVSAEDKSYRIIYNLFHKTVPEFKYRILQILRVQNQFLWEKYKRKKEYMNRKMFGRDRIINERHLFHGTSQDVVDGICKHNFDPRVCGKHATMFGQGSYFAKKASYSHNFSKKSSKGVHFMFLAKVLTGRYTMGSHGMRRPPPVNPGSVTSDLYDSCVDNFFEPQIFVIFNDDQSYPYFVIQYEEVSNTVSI

Row | Compound | bioavailability [1] | IC50 [2]
1 | C[C@@H](COCCC(=O)N1CCN2c3ncc(Cl)cc3OCC[C@@H]2C1)Oc1cn[nH]c(=O)c1C(F)(F)F | 106% | 1.01 nM
2 | C[C@@H](COCCC(=O)N1CCN2c3ncc(C(F)(F)F)cc3OC[C@@H]2C1)Oc1cn[nH]c(=O)c1C(F)(F)F | 121% | 1.24 nM
